Data: patent US20150030583A1, “Methods of Treating Serosal Cancer” (SLOAN KETTERING INSTITUTE FOR CANCER RESEARCH, priority 2011, published 2015)
Like-named read-outs stand apart in the source and are kept apart here.

Experiments:
Ovcar3-GTL catenae = assay: Ovcar3-GTL catena drug sensitivity / proliferation screen (alamarBlue, 384-well)
Protocol: Cells were resuspended in M5-FCS to produce homogenous cultures of single cells which were seeded in 50 μL aliquots per well at the indicated cell densities and grown for the indicated times before addition of test compounds or other reagents.
For these experiments, 25 Ovcar3-GTL catena or 250 Ovcar3-GTL catena cells were seeded per well as described above. […] Five days after adding the test compound, alamarBlue® was added to the cultures and culture absorbance was measured 48 hours later.
The assays were conducted on catena cells with or without a glycocalyx coat and the IC50 values were determined.
Each compound was tested against three cellular entities (catena cells with or without the coat and established tumor spheroids) at 5 μM, 0.2 μM and 0.008 μM of compounds (with replicates).

catena cells [1] = assay: Morphological observation of treated catenae under the microscope; assay type: cell-based; settings: for cells seen in cultures treated with high concentrations of compounds: 100 μM (rapamycin 25 μM, lovastatin acid 50 μM), cells re-entered the cell cycle without drug; for morphological change of treated catenae: microscope observation
[2] = test system: Ovcar3 monolayer (epithelial) cells; assay: Ovarian cancer monolayer drug sensitivity (alamarBlue), Ovcar3; assay type: cell-based
Protocol: (§1) The foregoing total of 29 compounds were tested in parallel on ovarian cancer monolayer cells by seeding 100 Ovcar3 monolayer (epithelial) or 25 Ovcar5 monolayer (mesenchymal) cells in 384-well plates. Drugs were added 4 days after cell seeding and cell viability was analyzed by alamarBlue staining. In general, catena cells with an established glycocalyx were on average 4-8 fold more resistant to these compounds when compared to monolayers. […]

[3] = test system: Ovcar5 monolayer (mesenchymal) cells; assay: Ovarian cancer monolayer drug sensitivity (alamarBlue), Ovcar5; assay type: cell-based
Protocol: as §1

[4] = test system: established tumor spheroids; assay: Established tumor spheroid drug sensitivity (alamarBlue)
Protocol: The effect of these 29 compounds were also tested on established tumor spheroids. For these assays, 100 spheroid forming cells were seeded in 384-well plates and cultured for 11 days to allow the formation of tumor spheroids before adding drugs. Five days after adding the compound the cells were stained with alamarBlue and scored as above.

catena cells [5] = assay: Combination drug screening: paclitaxel after PEGylated enzyme treatment; assay type: cell-based
Protocol: Twenty-five […] seeded into 384-well plates. After 5 days, cells were treated with either PEGylated hyaluronidase, PEGylated collagenase or both for 10 minutes at 37° C. Without removing the enzymes, paclitaxel was added over a series of dilutions, followed by alamarBlue addition on day 9 with absorbance measured two days later.

[6] = 24 h, read-out: IC50 (μM) Addition on Day 1, Ovcar3-GTL catenae; compound added one day after seeding (cells predominantly lacking a glycocalyx)
[7] = 144 h, read-out: IC50 (μM) Addition on Day 6, Ovcar3-GTL catenae; compound added six days after seeding (established or substantial glycocalyx)
[8] = ratio of IC50 day 6 to day 1, Ovcar3-GTL catenae
[9] = read-out: IC50 (μM) Addition on Day 1; Ovcar3-GTL catenae; compound added one day after seeding (cells predominantly lacking a glycocalyx)
[10] = read-out: IC50 (μM) Addition on Day 6; Ovcar3-GTL catenae; compound added six days after seeding (established or substantial glycocalyx)
[11] = catena with established glycocalyx versus monolayers
[12] = 100 cells seeded, drugs added 4 days after seeding, read-out: IC50 (μM) Ovcar3 monolayer
[13] = 25 cells seeded, drugs added 4 days after seeding, read-out: IC50 (μM) Ovcar5 monolayer
[14] = read-out: IC50 (μM) No coat, pathway-specific inhibitors; catena cells without glycocalyx coat
[15] = read-out: IC50 (μM) With coat, pathway-specific inhibitors; catena cells with glycocalyx coat
[16] = increased resistance of catena cells with glycocalyx coat versus no coat
[17] = read-out: IC50 (μM) With coat; pathway-specific inhibitors; catena cells with glycocalyx coat

Molecule: CC[C@@]1(O)C(=O)OCc2c1cc1n(c2=O)Cc2cc3c(CN(C)C)c(O)ccc3nc2-1 [topotecan]
- IC50 (Ovcar3-GTL catenae; [6]): 0.02 µM
- IC50 (Ovcar3-GTL catenae; [7]): > 100 µM
- Increase in Resistance Day6/Day 1 (Ovcar3-GTL catenae; [8]): 5,000 fold
- cells seen in cultures treated with high concentrations of compounds (catena cells [1]): live, large single cells, i.e., cells arrested at mitosis

Molecule: Nc1ccn([C@@H]2O[C@H](CO)[C@@H](O)[C@@H]2O)c(=O)n1 [Ara-C]
- Increase in Resistance Day6/Day 1 (Ovcar3-GTL catenae; [8]): 2,000 fold
- IC50 (Ovcar3-GTL catenae; [9]): 0.05 µM
- IC50 (Ovcar3-GTL catenae; [10]): > 100 µM
- cells seen in cultures treated with high concentrations of compounds (catena cells [1]): live, large single cells, i.e., cells arrested at mitosis

Molecule: iso-oxazole-fludelone
- Increased Resistance of catena (Ovcar3-GTL catenae; [11]): 2,000 fold
- Increase in Resistance Day6/Day 1 (Ovcar3-GTL catenae; [8]): 33,333 fold
- IC50 (Ovcar3-GTL catenae; [9]): 0.003 µM
- IC50 (Ovcar3-GTL catenae; [10]): > 100 µM
- IC50 [2, 12]: 0.05 µM
- IC50 [3, 13]: 0.012 µM
- cells seen in cultures treated with high concentrations of compounds (catena cells [1]): live, large single cells, i.e., cells arrested at mitosis

Molecule: COc1cc2c(cc1OC)[C@@H]1C(=O)c3ccc4c(c3O[C@@H]1CO2)C=CC(C)(C)O4 [deguelin]
- IC50 ([4]; read-out: spheroid IC50): 0.4 µM
- additional resistance conferred by spheroid formation ([4]; spheroid versus catena IC50): 15 fold
- IC50 (Ovcar3-GTL catenae; 24 h, read-out: IC50 (μM) Addition on Day 1): 0.025 µM
- IC50 (Ovcar3-GTL catenae; 144 h, read-out: IC50 (μM) Addition on Day 6): 0.025 µM

Molecule: O=C(CCCCCCC(=O)Nc1ccccc1)NO [SAHA, Vorinostat]
- morphological change of treated catenae (catena cells [1]): formation of tight spheroids

Molecule: CC(=O)O[C@H]1C(=O)[C@@]2(C)[C@H]([C@H](OC(=O)c3ccccc3)[C@]3(O)C[C@H](OC(=O)[C@H](O)[C@@H](NC(=O)c4ccccc4)c4ccccc4)C(C)=C1C3(C)C)[C@]1(OC(C)=O)CO[C@@H]1C[C@@H]2O [paclitaxel]
- decrease of paclitaxel IC50 after PEGylated hyaluronidase (catena cells [5]; enzyme 10 min at 37° C. on day 5 before paclitaxel): 2.5 fold
- decrease of paclitaxel IC50 after combination of PEGylated hyaluronidase and PEGylated collagenase (catena cells [5]; enzymes 10 min at 37° C. on day 5 before paclitaxel): 16 fold
- IC50 (Ovcar3-GTL catenae; [6]): ≤ 1.2e-05 µM
- IC50 (Ovcar3-GTL catenae; [7]): > 100 µM
- IC50 (Ovcar3-GTL catenae; Homo sapiens, OVCAR-3, read-out: IC50 (μM) Ovcar3 catena, catena cells with an established glycocalyx (Table D)): > 100 µM
- Increased Resistance of catena (Ovcar3-GTL catenae; [11]): 4,000 fold
- IC50 ([2]; Homo sapiens, OVCAR-3, 96 h, 100 cells seeded, drugs added 4 days after seeding, read-out: IC50 (μM) Ovcar3 monolayer): 0.025 µM
- IC50 ([2]; Homo sapiens, OVCAR-3, subnanomolar to no more than 50 nM, read-out: IC50 Ovcar3 monolayer cells): ≤ 0.05 µM
- IC50 ([3]; Homo sapiens, OVCAR-5, 96 h, 25 cells seeded, drugs added 4 days after seeding, read-out: IC50 (μM) Ovcar5 monolayer): 0.025 µM
- IC50 ([3]; Homo sapiens, OVCAR-5, subnanomolar to no more than 50 nM, read-out: IC50 Ovcar5 monolayer cells): ≤ 0.05 µM
- cells seen in cultures treated with high concentrations of compounds (catena cells [1]): live, large single cells, i.e., cells arrested at mitosis

Molecule: COc1cc2c(Oc3ccc(NC(=O)C4(C(=O)Nc5ccc(F)cc5)CC4)cc3F)ccnc2cc1OCCCN1CCOCC1 [XL880 (GSK1363089EXEL-2880)]
- IC50 (Ovcar3-GTL catenae; [14]): 0.05 µM
- IC50 (Ovcar3-GTL catenae; [15]): 13.4 µM

Molecule: COCCNCc1ccc(-c2cc3nccc(Oc4ccc(NC(=S)NC(=O)Cc5ccc(F)cc5)cc4F)c3s2)nc1 [MGCD-265]
- Fold resistance (Ovcar3-GTL catenae; [16]): >8 fold
- IC50 (Ovcar3-GTL catenae; [14]): 3.14 µM
- IC50 (Ovcar3-GTL catenae; [15]): > 25 µM

Molecule: CCNC(=O)c1noc(-c2cc(C(C)C)c(O)cc2O)c1-c1ccc(CN2CCOCC2)cc1 [NVP-AUY922]
- Fold resistance (Ovcar3-GTL catenae; [16]): 24 fold

Molecule: O=c1cc(-c2cccc3c2Sc2ccccc2S3)oc(N2CCOCC2)c1 [KU-55933]
- IC50 (Ovcar3-GTL catenae; [14]): 13.4 µM
- IC50 (Ovcar3-GTL catenae; [15]): 13.4 µM

Molecule: COc1cccc2c1C(=O)c1c(O)c3c(c(O)c1C2=O)C[C@@](O)(C(=O)CO)C[C@@H]3O[C@H]1C[C@H](N)[C@H](O)[C@H](C)O1 [doxorubicin]
- IC50 (Ovcar3-GTL catenae; [6]): 0.025 µM
- IC50 (Ovcar3-GTL catenae; [7]): 0.8 µM
- Increase in Resistance Day6/Day 1 (Ovcar3-GTL catenae; [8]): 32 fold

Molecule: CO[C@@]12[C@H](COC(N)=O)C3=C(C(=O)C(C)=C(N)C3=O)N1C[C@@H]1N[C@@H]12 [mitomycin-C]
- Increase in Resistance Day6/Day 1 (Ovcar3-GTL catenae; [8]): 60 fold
- IC50 (Ovcar3-GTL catenae; [9]): 0.05 µM
- IC50 (Ovcar3-GTL catenae; [10]): 3 µM

Molecule: O=C(/C=C/c1ccc(CN(CCO)CCc2c[nH]c3ccccc23)cc1)NO [LAQ824 (NVP-LAQ824, Dacinostat), Dacinostat]
- Fold resistance (Ovcar3-GTL catenae; [16]): 16 fold
- IC50 (Ovcar3-GTL catenae; [14]): 0.01 µM
- IC50 (Ovcar3-GTL catenae; [15]): < 0.2 µM
- IC50 (Ovcar3-GTL catenae; [17]): 0.2 µM

Molecule: C=CCNC1=C2C[C@@H](C)C[C@H](OC)[C@H](O)[C@@H](C)/C=C(\C)[C@H](OC(N)=O)[C@@H](OC)/C=C\C=C(/C)C(=O)NC(=CC1=O)C2=O [17AAG]
- Increase in Resistance Day6/Day 1 (Ovcar3-GTL catenae; [8]): 33 fold
- IC50 (Ovcar3-GTL catenae; [9]): 0.012 µM
- IC50 (Ovcar3-GTL catenae; [10]): 0.4 µM

Molecule: O=C(NOCC1CC1)c1ccc(F)c(F)c1Nc1ccc(I)cc1Cl [CI-1040 (PD184352)]
- IC50 (Ovcar3-GTL catenae; [14]): > 25 µM
- IC50 (Ovcar3-GTL catenae; [15]): > 25 µM

Molecule: C/C(=C\c1csc(C)n1)[C@@H]1C/C=C(/C(F)(F)F)C/C=C/[C@H](C)[C@H](O)[C@@H](C)C(=O)C(C)(C)[C@@H](O)CC(=O)O1 [fludelone]
- Increased Resistance of catena (Ovcar3-GTL catenae; [11]): 125,000 fold
- IC50 (Ovcar3-GTL catenae; [9]): ≤ 1.2e-05 µM
- IC50 (Ovcar3-GTL catenae; [10]): > 100 µM
- IC50 [2, 12]: 0.0008 µM
- IC50 [3, 13]: 0.0004 µM
- cells seen in cultures treated with high concentrations of compounds (catena cells [1]): live, large single cells, i.e., cells arrested at mitosis

Molecule: COc1cc2nccc(Oc3ccc(NC(=O)Nc4cc(C)on4)c(Cl)c3)c2cc1OC [AV-951 (Tivozanib), Tivozanib]
- IC50 (Ovcar3-GTL catenae; [14]): 13.4 µM
- IC50 (Ovcar3-GTL catenae; [15]): > 25 µM

Molecule: OCCn1cc(-c2cnc3nnn(Cc4ccc5ncccc5c4)c3n2)cn1 [PF-04217903]
- IC50 (Ovcar3-GTL catenae; [14]): > 25 µM
- IC50 (Ovcar3-GTL catenae; [17]): > 25 µM

Molecule: Cn1cc(-c2ccc3nnc(C(F)(F)c4ccc5ncccc5c4)n3n2)cn1 [JNJ-38877605]
- Fold resistance (Ovcar3-GTL catenae; [16]): >8 fold
- IC50 (Ovcar3-GTL catenae; [14]): 3.14 µM
- IC50 (Ovcar3-GTL catenae; [17]): > 25 µM

Molecule: CC[C@H](C)C(=O)O[C@H]1C[C@@H](C)C=C2C=C[C@H](C)[C@H](CC[C@@H](O)C[C@@H](O)CC(=O)O)[C@H]21 [lovastatin acid]
- IC50 (Ovcar3-GTL catenae; [6]): 25 µM
- IC50 (Ovcar3-GTL catenae; [7]): 50 µM
- Increase in Resistance Day6/Day 1 (Ovcar3-GTL catenae; [8]): 2 fold
- cells seen in cultures treated with high concentrations of compounds (catena cells [1]): live, large single cells, i.e., cells arrested at mitosis

Molecule: Cc1ccc(NC(=O)c2ccc(CN3CCN(C)CC3)cc2)cc1Nc1nc(-c2cccnc2)cs1 [Masitinib (AB1010), Masitinib]
- IC50 (Ovcar3-GTL catenae; [14]): 13.4 µM
- IC50 (Ovcar3-GTL catenae; [15]): 13.4 µM

Molecule: O=c1[nH]cc(F)c(=O)[nH]1 [5-FU, 5-fluorouracil]
- IC50 (Ovcar3-GTL catenae; [6]): 3 µM
- IC50 (Ovcar3-GTL catenae; [7]): > 100 µM
- Increase in Resistance Day6/Day 1 (Ovcar3-GTL catenae; [8]): 33 fold
- morphological change of treated catenae (catena cells [1]): formation of fused chains

Molecule: Cc1[nH]c(/C=C2\C(=O)Nc3ccc(S(=O)(=O)N(C)c4cccc(Cl)c4)cc32)c(C)c1C(=O)N1CCN(C)CC1 [SU11274 (PKI-SU11274)]
- Fold resistance (Ovcar3-GTL catenae; [16]): >8 fold
- IC50 (Ovcar3-GTL catenae; [14]): 3.14 µM
- IC50 (Ovcar3-GTL catenae; [15]): > 25 µM

Molecule: Nc1cccc2c1CN(C1CCC(=O)NC1=O)C2=O (stereo not shown) [Lenalidomide]
- IC50 (Ovcar3-GTL catenae; [14]): > 25 µM
- IC50 (Ovcar3-GTL catenae; [15]): > 25 µM

Molecule: COC(=O)c1ccc2c(c1)NC(=O)/C2=C(\Nc1ccc(N(C)C(=O)CN2CCN(C)CC2)cc1)c1ccccc1 [BIBF1120 (Vargatef)]
- IC50 (Ovcar3-GTL catenae; [14]): 13.4 µM
- IC50 (Ovcar3-GTL catenae; [15]): 13.4 µM

Molecule: CN(C)C/C=C/C(=O)Nc1cc2c(Nc3ccc(F)c(Cl)c3)ncnc2cc1O[C@H]1CCOC1 [BIBW2992 (Tovok)]
- Fold resistance (Ovcar3-GTL catenae; [16]): 4 fold
- IC50 (Ovcar3-GTL catenae; [14]): 3.14 µM
- IC50 (Ovcar3-GTL catenae; [15]): 13.4 µM

Molecule: C[C@@H](N)[C@H]1CC[C@H](C(=O)Nc2ccncc2)CC1 [Y27632]
- IC50 (Ovcar3-GTL catenae; [6]): > 100 µM
- IC50 (Ovcar3-GTL catenae; [7]): > 100 µM
- IC50 (Ovcar3-GTL catenae; [14]): > 25 µM
- IC50 (Ovcar3-GTL catenae; [15]): > 25 µM

Molecule: NCC(=O)Nc1ccc(-n2nc(C(F)(F)F)cc2-c2ccc3c(ccc4ccccc43)c2)cc1 [OSU-03012]
- Fold resistance (Ovcar3-GTL catenae; [16]): 4 fold
- IC50 (Ovcar3-GTL catenae; [14]): 3.14 µM
- IC50 (Ovcar3-GTL catenae; [15]): 13.4 µM
